In US12448389B2, “BRM targeting compounds and associated methods of use” (Prelude Therapeutics Incorporated, priority 2020, dated 2025):

What was measured:
SMARCA2-HiBiT = biological target: T1, SMARCA2-HiBiT (Homo sapiens, UniProt P51531); assay: SMARCA2 HiBiT degradation assay in HeLa cells; type: cell-based; settings: 18 hours incubation; for DC50: read-out: HeLa_HiBit-SM2 DC50; for Dmax: HeLa, read-out: HeLa-HiBit-SM2 Dmax (%)
T1 construct: SMARCA2-HiBiT knock-in Hela monoclonal cell (CS302366); host or cells: HeLa monoclonal knock-in line (CRISPR HiBiT knock-in at the endogenous locus, heterozygous)
T1 sequence (P51531 whole entry): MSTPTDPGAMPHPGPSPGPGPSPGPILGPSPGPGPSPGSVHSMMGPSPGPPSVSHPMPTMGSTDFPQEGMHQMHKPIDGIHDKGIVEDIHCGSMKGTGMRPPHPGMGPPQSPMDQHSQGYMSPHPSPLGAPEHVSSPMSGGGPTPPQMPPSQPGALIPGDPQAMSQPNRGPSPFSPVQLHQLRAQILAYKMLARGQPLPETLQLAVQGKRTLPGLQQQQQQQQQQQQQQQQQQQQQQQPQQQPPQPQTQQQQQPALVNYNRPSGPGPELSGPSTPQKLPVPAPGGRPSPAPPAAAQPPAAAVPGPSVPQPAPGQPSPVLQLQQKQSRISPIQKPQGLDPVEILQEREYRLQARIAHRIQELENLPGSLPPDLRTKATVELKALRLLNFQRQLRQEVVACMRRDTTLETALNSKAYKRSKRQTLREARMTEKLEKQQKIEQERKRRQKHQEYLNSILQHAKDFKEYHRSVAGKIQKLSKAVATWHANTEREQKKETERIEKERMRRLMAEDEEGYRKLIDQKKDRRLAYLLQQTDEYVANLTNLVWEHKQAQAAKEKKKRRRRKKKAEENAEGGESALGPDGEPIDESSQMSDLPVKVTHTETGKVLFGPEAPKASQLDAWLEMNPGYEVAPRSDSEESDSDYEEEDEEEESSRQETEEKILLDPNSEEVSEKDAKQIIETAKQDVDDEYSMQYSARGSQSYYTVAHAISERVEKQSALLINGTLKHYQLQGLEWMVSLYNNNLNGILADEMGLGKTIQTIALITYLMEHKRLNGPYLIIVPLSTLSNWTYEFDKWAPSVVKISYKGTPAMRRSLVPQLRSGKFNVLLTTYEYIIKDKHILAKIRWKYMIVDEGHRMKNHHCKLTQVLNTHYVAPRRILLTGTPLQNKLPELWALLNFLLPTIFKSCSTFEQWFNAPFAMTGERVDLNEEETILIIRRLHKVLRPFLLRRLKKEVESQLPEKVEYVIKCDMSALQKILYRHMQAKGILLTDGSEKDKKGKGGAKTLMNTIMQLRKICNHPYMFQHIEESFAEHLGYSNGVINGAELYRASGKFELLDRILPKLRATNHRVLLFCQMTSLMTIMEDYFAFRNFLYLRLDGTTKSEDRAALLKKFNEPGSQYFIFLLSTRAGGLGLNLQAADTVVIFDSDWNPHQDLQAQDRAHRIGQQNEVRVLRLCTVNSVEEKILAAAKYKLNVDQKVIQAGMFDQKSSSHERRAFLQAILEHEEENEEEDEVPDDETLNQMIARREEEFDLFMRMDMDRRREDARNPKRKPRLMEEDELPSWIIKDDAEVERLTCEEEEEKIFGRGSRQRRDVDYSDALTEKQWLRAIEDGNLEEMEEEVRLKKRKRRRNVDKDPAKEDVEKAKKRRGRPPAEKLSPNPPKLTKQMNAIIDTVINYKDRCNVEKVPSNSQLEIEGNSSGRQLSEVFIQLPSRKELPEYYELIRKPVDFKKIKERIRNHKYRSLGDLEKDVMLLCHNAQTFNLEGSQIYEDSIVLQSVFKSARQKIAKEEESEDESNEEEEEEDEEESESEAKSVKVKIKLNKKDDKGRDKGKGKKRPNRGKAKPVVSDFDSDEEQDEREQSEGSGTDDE
Outline: (§1)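 HeLa monoclonal lines with heterozygous HiBiT knock-in were seeded at 2500 cells/well in EMEM with 10% FBS and treated with compound for 18 h at 37 °C. Remaining tagged protein was measured by Nano-Glo HiBiT lytic luminescence after 30–60 min at RT, and values came from curve fitting.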

SMARCA4-HiBiT = biological target: T2, SMARCA4-HiBiT (Homo sapiens, UniProt P51532); assay: SMARCA4 HiBiT degradation assay in HeLa cells; type: cell-based; settings: 18 hours incubation; for DC50: read-out: HeLa-HiBit-SM4 DC50; for Dmax: HeLa, read-out: HeLa-HiBit-SM4 Dmax (%)
T2 construct: SMARCA4-HiBiT knock-in Hela monoclonal cell (CS3023226); host or cells: HeLa monoclonal knock-in line (CRISPR HiBiT knock-in at the endogenous locus, heterozygous)
T2 sequence (P51532 whole entry): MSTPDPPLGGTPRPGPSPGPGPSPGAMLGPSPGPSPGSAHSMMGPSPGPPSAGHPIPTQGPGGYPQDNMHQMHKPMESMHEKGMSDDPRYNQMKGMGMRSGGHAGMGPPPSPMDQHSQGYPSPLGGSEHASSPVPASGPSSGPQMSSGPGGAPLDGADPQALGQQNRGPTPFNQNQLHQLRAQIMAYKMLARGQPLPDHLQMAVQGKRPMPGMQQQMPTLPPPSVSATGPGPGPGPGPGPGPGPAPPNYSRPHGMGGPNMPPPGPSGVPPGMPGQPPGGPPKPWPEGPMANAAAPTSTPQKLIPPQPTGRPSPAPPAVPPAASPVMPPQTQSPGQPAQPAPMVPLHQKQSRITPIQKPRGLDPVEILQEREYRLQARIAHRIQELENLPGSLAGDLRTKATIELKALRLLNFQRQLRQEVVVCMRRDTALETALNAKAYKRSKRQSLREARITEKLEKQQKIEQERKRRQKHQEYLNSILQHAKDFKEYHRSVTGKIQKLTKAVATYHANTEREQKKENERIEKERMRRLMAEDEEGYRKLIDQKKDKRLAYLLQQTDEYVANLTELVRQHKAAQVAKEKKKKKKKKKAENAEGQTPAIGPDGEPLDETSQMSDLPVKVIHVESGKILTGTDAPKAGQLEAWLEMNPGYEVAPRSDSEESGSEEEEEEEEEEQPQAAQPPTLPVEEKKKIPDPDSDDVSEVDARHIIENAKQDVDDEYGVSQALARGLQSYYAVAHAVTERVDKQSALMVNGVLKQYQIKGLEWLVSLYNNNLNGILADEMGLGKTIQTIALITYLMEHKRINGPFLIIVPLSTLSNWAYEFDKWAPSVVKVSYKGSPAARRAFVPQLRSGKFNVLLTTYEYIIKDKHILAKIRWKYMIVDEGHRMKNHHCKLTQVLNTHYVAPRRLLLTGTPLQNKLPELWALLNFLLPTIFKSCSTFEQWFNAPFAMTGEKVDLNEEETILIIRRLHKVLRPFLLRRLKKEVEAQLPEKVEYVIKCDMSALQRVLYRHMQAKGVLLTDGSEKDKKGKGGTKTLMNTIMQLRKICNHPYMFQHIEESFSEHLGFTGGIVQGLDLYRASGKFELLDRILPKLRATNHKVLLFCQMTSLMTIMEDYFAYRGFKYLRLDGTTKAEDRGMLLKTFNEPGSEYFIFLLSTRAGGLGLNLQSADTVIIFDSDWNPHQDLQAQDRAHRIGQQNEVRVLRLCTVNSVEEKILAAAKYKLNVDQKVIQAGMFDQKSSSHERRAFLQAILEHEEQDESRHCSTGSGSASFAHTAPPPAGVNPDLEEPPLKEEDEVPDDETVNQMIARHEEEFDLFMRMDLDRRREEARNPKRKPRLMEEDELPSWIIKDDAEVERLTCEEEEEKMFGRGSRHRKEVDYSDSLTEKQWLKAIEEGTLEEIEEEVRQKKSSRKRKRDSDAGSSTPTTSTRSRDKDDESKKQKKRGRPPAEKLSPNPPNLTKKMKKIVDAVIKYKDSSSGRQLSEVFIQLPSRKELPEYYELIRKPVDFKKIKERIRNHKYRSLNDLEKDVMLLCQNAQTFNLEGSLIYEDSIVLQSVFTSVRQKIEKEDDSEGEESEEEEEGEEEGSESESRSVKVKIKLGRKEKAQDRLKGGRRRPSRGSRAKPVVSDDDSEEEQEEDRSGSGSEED
Outline: as §1

| SMILES | DC50 (SMARCA2-HiBiT) [µM] | Dmax (SMARCA2-HiBiT) [%] | DC50 (SMARCA4-HiBiT) [µM] | Dmax (SMARCA4-HiBiT) [%] |
| --- | --- | --- | --- | --- |
| O=C1CCC(N2C(=O)c3cccc(N4CCC(CCCN5CCC(N6CCN7c8cc(-c9ccccc9O)nnc8NC[C@H]7C6)C(F)C5)CC4)c3C2=O)C(=O)N1 (stereo partly drawn) [Example 73, 2-(2,6-dioxopiperidin-3-yl)-4-(4-(3-(3-fluoro-4-((S)-2-(2-hydroxyphenyl)-5,6,6a,7,9,10-hexahydro-8H-pyrazino[1′,2′:4,5]pyrazino[2,3-c]pyridazin-8-yl)piperidin-1-yl)propyl)piperidin-1-yl)isoindoline-1,3-] | < 0.01 | 75 to 85 | < 0.01 | 50 to 75 |
| O=C1CCC(N2Cc3cc(C4CCN(C5CCCN(CCCN6CCN7c8cc(-c9ccccc9O)nnc8NC[C@H]7C6)C5)CC4)ccc3C2=O)C(=O)N1 (stereo partly drawn) [Example 210, 3-(5-(1′-(3-((S)-2-(2-hydroxyphenyl)-5,6,6a,7,9,10-hexahydro-8H-pyrazino[1′,2′:4,5]pyrazino[2,3-c]pyridazin-8-yl)propyl)-[1,3′-bipiperidin]-4-yl)-1-oxoisoindolin-2-yl)piperidine-2,6-dione] | < 0.01 | > 85 | < 0.01 | 75 to 85 |
| O=C1CCC(N2C(=O)c3cc(F)c(N4CCN(CC5CCN(C(=O)N6CCN7c8cc(-c9ccccc9O)nnc8NC[C@H]7C6)CC5)CC4)cc3C2=O)C(=O)N1 (stereo partly drawn) [Example 263, 2-(2,6-dioxopiperidin-3-yl)-5-fluoro-6-(4-((1-((S)-2-(2-hydroxyphenyl)-6,6a,7,8,9,10-hexahydro-5H-pyrazino[1′,2′:4,5]pyrazino[2,3-c]pyridazine-8-carbonyl)piperidin-4-yl)methyl)piperazin-1-yl)isoindoline-1,3-dione] | < 0.01 | ≤ 50 | 0.01 to 0.1 | ≤ 50 |
| O=C1CCC(N2C(=O)c3ccc(N4CCCC(CN5CCO[C@@H](CN6CCN7c8cc(-c9ccccc9O)nnc8NC[C@H]7C6)C5)C4)cc3C2=O)C(=O)N1 (stereo partly drawn) [Example 79, 2-(2,6-dioxopiperidin-3-yl)-5-(3-(((S)-2-(((S)-2-(2-hydroxyphenyl)-5,6,6a,7,9,10-hexahydro-8H-pyrazino[1′,2′:4,5]pyrazino[2,3-c]pyridazin-8-yl)methyl)morpholino)methyl)piperidin-1-yl)isoindoline-1,3-dione] | < 0.01 | 75 to 85 | < 0.01 | 75 to 85 |
| O=C1CCC(N2C(=O)c3cccc(N4CCN(CCCN5CCC(N6CCN7c8cc(-c9ccccc9O)nnc8NC[C@H]7C6)CC5)CC4)c3C2=O)C(=O)N1 (stereo partly drawn) [Example 69, 2-(2,6-dioxopiperidin-3-yl)-4-(4-(3-(4-((S)-2-(2-hydroxyphenyl)-5,6,6a,7,9,10-hexahydro-8H-pyrazino[1′,2′:4,5]pyrazino[2,3-c]pyridazin-8-yl)piperidin-1-yl)propyl)piperazin-1-yl)isoindoline-1,3-dione] | < 0.01 | > 85 | < 0.01 | > 85 |
| O=C1CCC(N2C(=O)c3ccc(N4CCOC(CN5C[C@@H]6[C@H](C5)[C@H]6CN5CCN6c7cc(-c8ccccc8O)nnc7NC[C@H]6C5)C4)cc3C2=O)C(=O)N1 (stereo partly drawn) [Example 49, 2-(2,6-dioxopiperidin-3-yl)-5-(2-(((1R,5S,6s)-6-(((S)-2-(2-hydroxyphenyl)-5,6,6a,7,9,10-hexahydro-8H-pyrazino[1′,2′:4,5]pyrazino[2,3-c]pyridazin-8-yl)methyl)-3-azabicyclo[3.1.0]hexan-3-yl)methyl)morpholino)isoindoline-1,3-dione] | < 0.01 | > 85 | < 0.01 | 75 to 85 |
| O=C1CCC(N2Cc3cc(N4CC(CN5CCC(CN6CCN7c8cc(-c9ccccc9O)nnc8NC[C@H]7C6)CC5)C4)ccc3C2=O)C(=O)N1 (stereo partly drawn) [Example 230, 3-(5-(3-((4-(((S)-2-(2-hydroxyphenyl)-5,6,6a,7,9,10-hexahydro-8H-pyrazino[1′,2′:4,5]pyrazino[2,3-c]pyridazin-8-yl)methyl)piperidin-1-yl)methyl)azetidin-1-yl)-1-oxoisoindolin-2-yl)piperidine-2,6-dione] | < 0.01 | > 85 | < 0.01 | > 85 |
| O=C1CCC(N2C(=O)c3ccc(N4CCC(CN5CCC(CN6CCN7c8cc(-c9ccccc9O)nnc8NC[C@H]7C6)C(F)(F)C5)CC4)cc3C2=O)C(=O)N1 (stereo partly drawn) [Example 260, 5-(4-((3,3-difluoro-4-(((S)-2-(2-hydroxyphenyl)-5,6,6a,7,9,10-hexahydro-8H-pyrazino[1′,2′:4,5]pyrazino[2,3-c]pyridazin-8-yl)methyl)piperidin-1-yl)methyl)piperidin-1-yl)-2-(2,6-dioxopiperidin-3-yl)isoindoline-1,3-dione] | < 0.01 | 75 to 85 | 0.01 to 0.1 | 75 to 85 |
| O=C1CCC(N2C(=O)c3ccc(N4CCC(CN5C[C@H]6C[C@H](CN7CCN8c9cc(-c%10ccccc%10O)nnc9NC[C@H]8C7)C[C@H]6C5)CC4)cc3C2=O)C(=O)N1 (stereo partly drawn) [Example 45, 2-(2,6-dioxopiperidin-3-yl)-5-(4-(((3aR,5s,6aS)-5-(((S)-2-(2-hydroxyphenyl)-5,6,6a,7,9,10-hexahydro-8H-pyrazino [1′,2′:4,5]pyrazino[2,3-c]pyridazin-8-yl)methyl)hexahydrocyclopenta[c]pyrrol-2(1H)-yl)methyl)piperidin-1-yl)isoindoline-1,3-dione] | < 0.01 | > 85 | < 0.01 | > 85 |

The next lines start with the values.

| DC50 (SMARCA2-HiBiT) [µM] | Dmax (SMARCA2-HiBiT) [%] | DC50 (SMARCA4-HiBiT) [µM] | Dmax (SMARCA4-HiBiT) [%] | SMILES |
| --- | --- | --- | --- | --- |
| < 0.01 | > 85 | < 0.01 | > 85 | O=C1CCC(N2C(=O)c3ccc(N4CCC(CN5CCC(CCN6CCN7c8cc(-c9ccccc9O)nnc8NC[C@H]7C6)CC5)CC4)cc3C2=O)C(=O)N1 (stereo partly drawn) [Example 229, 2-(2,6-dioxopiperidin-3-yl)-5-(4-((4-(2-((S)-2-(2-hydroxyphenyl)-5,6,6a,7,9,10-hexahydro-8H-pyrazino[1′,2′:4,5]pyrazino[2,3-c]pyridazin-8-yl)ethyl)piperidin-1-yl)methyl)piperidin-1-yl)isoindoline-1,3-dione] |
| < 0.01 | > 85 | < 0.01 | 75 to 85 | O=C1CCC(N2C(=O)c3ccc(N4CCC(CN5CCC(CN6CCN7c8cc(-c9ccccc9O)nnc8NC[C@H]7C6)C5)CC4)cc3C2=O)C(=O)N1 (stereo partly drawn) [Example 33, 2-(2,6-dioxopiperidin-3-yl)-5-(4-((3-(((S)-2-(2-hydroxyphenyl)-5,6,6a,7,9,10-hexahydro-8H-pyrazino[1′,2′:4,5]pyrazino[2,3-c]pyridazin-8-yl)methyl)pyrrolidin-1-yl)methyl)piperidin-1-yl)isoindoline-1,3-dione] |
| < 0.01 | > 85 | < 0.01 | 75 to 85 | O=C1CCC(N2C(=O)c3ccc(N4CCC(F)(CN5CCC(CN6CCN7c8cc(-c9ccccc9O)nnc8NC[C@H]7C6)CC5)CC4)cc3C2=O)C(=O)N1 (stereo partly drawn) [Example 48, 2-(2,6-dioxopiperidin-3-yl)-5-(4-fluoro-4-((4-(((S)-2-(2-hydroxyphenyl)-5,6,6a,7,9,10-hexahydro-8H-pyrazino[1′,2′:4,5]pyrazino[2,3-c]pyridazin-8-yl)methyl)piperidin-1-yl)methyl)piperidin-1-yl)isoindoline-1,3-dione] |
| < 0.01 | > 85 | < 0.01 | > 85 | CC(C1CCN(CC2CCN(c3ccc4c(c3)C(=O)N(C3CCC(=O)NC3=O)C4=O)CC2)CC1)N1CCN2c3cc(-c4ccccc4O)nnc3NC[C@H]2C1 (stereo partly drawn) [Example 32, 2-(2,6-dioxopiperidin-3-yl)-5-(4-((4-(1-((S)-2-(2-hydroxyphenyl)-5,6,6a,7,9,10-hexahydro-8H-pyrazino[1′,2′:4,5]pyrazino[2,3-c]pyridazin-8-yl)ethyl)piperidin-1-yl)methyl)piperidin-1-yl)isoindoline-1,3-dione] |
